Calls of active or inactive are those of the source. No cut-off for these calls is given here.
Columns and labels:
[1] = molecular target: Cathepsin B (Homo sapiens) (UniProt P07858); assay: Inhibition of human cathepsin B using Cbz-Phe-Arg-AMC at 100 uM measured by fluorescence spectrophotometry
[2] = molecular target: Rhodesain (Trypanosoma brucei rhodesiense) (UniProt Q95PM0); assay: Inhibition of Trypanosoma brucei rhodesiense rhodesain using Cbz-Phe-Arg-7-amino-4-methylcoumarin assessed as substrate hydrolysis at 100 uM measured by fluorescence analysis for 10 mins
Sequence of Rhodesain (Trypanosoma brucei rhodesiense) (Q95PM0 1-450): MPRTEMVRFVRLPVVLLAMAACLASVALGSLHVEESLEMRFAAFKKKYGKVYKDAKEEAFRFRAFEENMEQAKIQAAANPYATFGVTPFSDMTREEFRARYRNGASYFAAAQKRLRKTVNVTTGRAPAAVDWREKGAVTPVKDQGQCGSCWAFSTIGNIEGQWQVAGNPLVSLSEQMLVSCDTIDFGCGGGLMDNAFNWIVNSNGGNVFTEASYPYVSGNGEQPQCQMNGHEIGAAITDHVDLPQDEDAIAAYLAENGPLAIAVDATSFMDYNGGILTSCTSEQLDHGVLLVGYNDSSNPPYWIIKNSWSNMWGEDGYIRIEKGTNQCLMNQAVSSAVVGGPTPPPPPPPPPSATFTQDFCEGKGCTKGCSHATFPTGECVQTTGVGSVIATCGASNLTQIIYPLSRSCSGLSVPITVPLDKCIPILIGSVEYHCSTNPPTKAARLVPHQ

Rhodesain = Rhodesain (Trypanosoma brucei rhodesiense, UniProt Q95PM0); assay: Inhibition of Trypanosoma brucei rhodesiense rhodesain using Cbz-Phe-Arg-7-amino-4-methylcoumarin assessed as substrate hydrolysis measured by fluorescence analysis for 10 mins
Sequence of Rhodesain (Q95PM0 whole entry): as the sequence (Q95PM0 1-450) above

[3] = molecular target: Procathepsin L (Homo sapiens) (UniProt P07711); assay: Inhibition of human cathepsin L using Cbz-Phe-Arg-AMC at 100 uM measured by fluorescence spectrophotometry
Sequence of Procathepsin L (Homo sapiens) (P07711 114-333 limits assumed): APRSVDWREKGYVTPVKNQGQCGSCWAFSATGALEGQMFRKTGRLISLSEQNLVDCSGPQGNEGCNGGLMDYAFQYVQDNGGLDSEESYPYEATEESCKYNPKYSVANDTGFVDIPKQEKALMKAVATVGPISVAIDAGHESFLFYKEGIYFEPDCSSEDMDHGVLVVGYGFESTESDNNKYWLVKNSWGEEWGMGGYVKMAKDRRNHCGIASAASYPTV

[4] = tested on: Trypanosoma brucei brucei; assay: Antitrypanosomal activity against Trypanosoma brucei brucei TC 221 after 72 hrs by Alamar Blue assay; type: functional, organism-based; conditions: TC 221, 72 h
[5] = Cytotoxicity against mouse J774.1 cells incubated for 24 to 48 hrs by Alamar Blue assay; type: cell-based
[6] = tested on: Trypanosoma brucei brucei; assay: Antitrypanosomal activity against Trypanosoma brucei brucei TC 221 after 48 hrs by Alamar Blue assay; type: functional, organism-based; conditions: TC 221, 48 h

| Compound | inhibition [1] | inhibition [2] | Ki (Rhodesain) [µM] | inhibition [3] | IC50 [4] [µM] | IC50 [5] [µM] | IC50 [6] [µM] |
| --- | --- | --- | --- | --- | --- | --- | --- |
| C=CCOC(=O)N[C@@H](CCc1ccccc1)C(=O)N1CC2ON=C(Br)C2C1 (mixture of isomers) | inactive | > 40% | 2.62 | – | – | – | – |
| O=C(N[C@@H](CCc1ccccc1)C(=O)N1CC2ON=C(Br)C2C1)OCc1ccccc1 (mixture of isomers) | inactive | inactive | – | – | – | – | – |
| CCCOC(=O)N[C@@H](Cc1ccccc1)C(=O)N1CC2ON=C(Br)C2C1 (mixture of isomers) | inactive | 13.1% | – | inactive | – | – | – |
| C=CCOC(=O)N[C@@H](CCc1ccccc1)C(=O)N1C[C@@H]2ON=C(Br)[C@@H]2C1 | inactive | > 40% | 3.35 | – | – | – | – |
| CCCOC(=O)N[C@@H](CC(C)C)C(=O)N1CC2ON=C(Br)C2C1 (mixture of isomers) | inactive | 11.3% | – | inactive | – | – | – |
| CC(C)C[C@H](NC(=O)OC(C)(C)C)C(=O)N1CC2ON=C(Br)C2C1 (mixture of isomers) | inactive | > 40% | 13.6 | inactive | – | – | – |
| C=CCOC(=O)N[C@@H](Cc1ccccc1)C(=O)N1CC2ON=C(Br)C2C1 (mixture of isomers) | inactive | > 40% | 16.8 | inactive | – | – | – |
| CC(C)(C)OC(=O)N[C@@H](CCc1ccccc1)C(=O)N1CC2ON=C(Br)C2C1 (mixture of isomers) | inactive | 5.8% | – | – | – | – | – |
| CC(C)C[C@H](NC(=O)OCc1ccccc1)C(=O)N1CC2ON=C(Br)C2C1 (mixture of isomers) | inactive | 8.3% | – | – | – | – | – |
| C=CCOC(=O)N[C@@H](CCc1ccccc1)C(=O)N1C[C@@H]2C(Br)=NO[C@@H]2C1 | inactive | > 40% | 2.73 | – | – | – | – |
| C=CCOC(=O)N[C@@H](Cc1ccccc1)C(=O)N1C[C@@H]2ON=C(Br)[C@@H]2C1 | inactive | > 40% | 16.6 | inactive | – | – | – |
| C=CCOC(=O)N[C@@H](Cc1ccccc1)C(=O)N1C[C@@H]2C(Br)=NO[C@@H]2C1 | inactive | > 40% | 15.1 | inactive | – | – | – |
| O=C(N[C@@H](CCc1ccccc1)C(=O)N1C[C@@H]2C(Br)=NO[C@@H]2C1)OCC1CC1 | inactive | 15.7% | – | – | – | – | – |
| CC(C)(C)OC(=O)N[C@@H](Cc1ccccc1)C(=O)N1CC2ON=C(Br)C2C1 (mixture of isomers) | inactive | > 40% | 17.7 | inactive | – | – | – |
| C=CCOC(=O)N[C@@H](CC(C)C)C(=O)N1C[C@@H]2ON=C(Br)[C@@H]2C1 | inactive | > 40% | 9.05 | inactive | – | – | – |
| O=C(N[C@@H](CCc1ccccc1)C(=O)N1C[C@@H]2C(Br)=NO[C@@H]2C1)OCc1ccc([N+](=O)[O-])cc1 | inactive | > 40% | 6.81 | – | – | – | – |
| CCCOC(=O)N[C@@H](CCc1ccccc1)C(=O)N1CC2ON=C(Br)C2C1 (mixture of isomers) | inactive | 15.3% | – | – | – | – | – |
| O=C(N[C@@H](Cc1ccccc1)C(=O)N1CC2ON=C(Br)C2C1)OCc1ccccc1 (mixture of isomers) | inactive | > 40% | 8.41 | inactive | 18.2 | > 100 | 16.4 |
| C=CCOC(=O)N[C@@H](CC(C)C)C(=O)N1C[C@@H]2C(Br)=NO[C@@H]2C1 | inactive | > 40% | 8.52 | inactive | – | – | – |
| C=CCOC(=O)N[C@@H](CC(C)C)C(=O)N1CC2ON=C(Br)C2C1 (mixture of isomers) | inactive | > 40% | 8.36 | inactive | – | – | – |
